In PMC7582544, “Bioactive Ent-Kaurane Diterpenes Oridonin and Irudonin Prevent Cancer Cells Migration by Interacting with the Actin Cytoskeleton Controller Ezrin” (International Journal of Molecular Sciences, 2020):
Like-named read-outs stand apart in the source and are kept apart here.

What was measured:
[1] = target: T1, Ezrin (Homo sapiens, UniProt P15311); test: CETSA dose response at […] °C in A375 cells (EC50 […] in MKN28), Tm shift […] to […] °C; DARTS with MS and Western blot; format: cell-based
T1 construct: gene EZR
T1 sequence (P15311 whole entry): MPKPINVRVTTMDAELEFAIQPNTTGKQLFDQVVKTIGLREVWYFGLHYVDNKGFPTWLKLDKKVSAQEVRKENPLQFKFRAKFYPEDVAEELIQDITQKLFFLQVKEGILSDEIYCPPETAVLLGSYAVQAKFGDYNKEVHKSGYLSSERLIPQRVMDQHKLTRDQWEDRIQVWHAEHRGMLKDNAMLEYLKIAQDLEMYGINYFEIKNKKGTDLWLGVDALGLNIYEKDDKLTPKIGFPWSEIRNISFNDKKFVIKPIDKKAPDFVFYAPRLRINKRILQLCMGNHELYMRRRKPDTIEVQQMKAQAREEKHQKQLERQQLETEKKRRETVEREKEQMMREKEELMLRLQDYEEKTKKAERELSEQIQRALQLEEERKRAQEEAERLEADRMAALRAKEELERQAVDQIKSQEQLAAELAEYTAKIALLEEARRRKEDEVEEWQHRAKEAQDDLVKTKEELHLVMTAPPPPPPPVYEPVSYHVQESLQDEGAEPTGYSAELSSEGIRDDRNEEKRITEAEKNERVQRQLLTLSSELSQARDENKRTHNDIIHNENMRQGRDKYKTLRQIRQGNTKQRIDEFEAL

[2] = tested on: C2C12; test: cells; set-up: species or system MKN28, A375; PrestoBlue cell proliferation/viability assay, absorbance 570 nm, 24 h; conditions: Mus musculus, 24 h, non-cancer myoblasts
Experimental: Cell proliferation rate was evaluated measuring mitochondrial metabolic activity through the use of PrestoBlueTM (PB) (Cat. N. A13262, Invitrogen), employed according to the manufacturer’s protocol. Cells were plated onto 96-well plates (8000 cells/well), treated with increasing concentrations (10–60 μM) of Ori or Iru for 24 h and then incubated with PB reagent at 10% final concentration for 1 h. The absorbance was monitored at 570 nm with a reference wavelength set a 600 nm and using a microplate reader (Multiskan Go, Thermo Scientific, Waltham, MA, USA). Cell viability was expressed as a percentage relative to the un-treated cells cultured in DMEM with 0.1% DMSO and set to 100%. The dose compounds reducing cell number by 50% (IC50 values) were calculated using the respective dose–response curves according to the manufacturer’s protocol. IC50 values were used for the subsequent proteomic experiments. Instead, the non-toxic concentration of 10 μM was used for the functional assays. […] To that aim, we first evaluated the cytotoxic potential of both diterpenes on the C2C12 cells; therefore, we exposed for 24 h C2C12 myoblasts to increasing concentrations (10–60 μM) of Ori or of Iru, and, subsequently, we performed cell proliferation assay (Figure 1).

[3] = tested on: MKN28; test: cells; set-up: species or system C2C12, A375; PrestoBlue cell proliferation/viability assay, absorbance 570 nm, 24 h; conditions: Homo sapiens, MKN-28, 24 h
[4] = tested on: A375; test: cells; set-up: species or system C2C12, MKN28; PrestoBlue cell proliferation/viability assay, absorbance 570 nm, 24 h; conditions: Homo sapiens, A-375, 24 h
[5] = target: T1, Ezrin; test: CETSA dose response at […] °C in MKN28 cells (EC50 […] in A375), Tm shift […] to […] °C; DARTS with MS and Western blot; format: cell-based

EC50 [1] [µM]	IC50 ([3]; read-out: Ori IC50) [µM]	IC50 ([4]; read-out: Ori IC50) [µM]	EC50 [5] [µM]	IC50 ([3]; read-out: Iru IC50) [µM]	IC50 ([4]; read-out: Iru IC50) [µM]	SMILES	IC50 ([2]; read-out: Ori IC50) [µM]	IC50 ([2]; read-out: Iru IC50) [µM]
19	20	25				C=C1C(=O)[C@]23[C@H](O)[C@H]1CC[C@H]2[C@@]12CO[C@]3(O)[C@@H](O)[C@@H]1C(C)(C)CC[C@@H]2O [Ori, (1S,2S,5S,8R,9S,10S,11R,15S,18R)-9,10,15,18-tetrahydroxy-12,12-dimethyl-6-methylidene-17-oxapentacyclo (7.6.2.15,8.01,11.02,8) octadecan-7-one]	30	
			13	25	35	C=C1C(=O)[C@@]23C(CC[C@@H]1[C@H]2O)[C@]12CCCC(C)(C)C1[C@H](O)[C@@]3(O)O[C@H]2O (some centres unmarked) [Iru]		50
